According to ChEMBL document CHEMBL4507298 (2021):

Columns and labels:
[1] = target: 5-hydroxytryptamine receptor 1B (Homo sapiens) (UniProt P28222); assay: 5-HT1B CEREP ligand profiling; conditions: Compound concentration 10.0 uM
[2] = target: 5-hydroxytryptamine receptor 1D (Homo sapiens) (UniProt P28221); assay: 5-HT1D CEREP ligand profiling; conditions: Compound concentration 10.0 uM
[3] = target: T1, Alpha-2B adrenergic receptor (Homo sapiens) (UniProt P18089); assay: alpha 2B (h) CEREP ligand profiling; conditions: Compound concentration 10.0 uM
T1 sequence (whole entry): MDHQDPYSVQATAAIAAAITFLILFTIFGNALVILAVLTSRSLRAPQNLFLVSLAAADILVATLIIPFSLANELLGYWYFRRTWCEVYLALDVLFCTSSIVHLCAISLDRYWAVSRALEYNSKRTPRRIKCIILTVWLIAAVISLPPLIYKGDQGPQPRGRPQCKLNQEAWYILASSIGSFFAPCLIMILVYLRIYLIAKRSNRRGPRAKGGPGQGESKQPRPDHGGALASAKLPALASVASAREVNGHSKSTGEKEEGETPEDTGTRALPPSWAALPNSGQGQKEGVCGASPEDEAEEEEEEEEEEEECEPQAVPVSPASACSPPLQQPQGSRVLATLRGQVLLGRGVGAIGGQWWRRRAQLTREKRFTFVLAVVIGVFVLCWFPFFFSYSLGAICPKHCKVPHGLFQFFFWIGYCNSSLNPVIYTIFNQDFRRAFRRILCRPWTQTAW

[4] = target: Gastrin/cholecystokinin type B receptor (Homo sapiens) (UniProt P32239); assay: CCKB (h) (CCK2) CEREP ligand profiling; conditions: Compound concentration 10.0 uM
[5] = target: T2, D(4) dopamine receptor (Homo sapiens) (UniProt P21917); assay: D4.4 (h) CEREP ligand profiling; conditions: Compound concentration 10.0 uM
T2 sequence (whole entry): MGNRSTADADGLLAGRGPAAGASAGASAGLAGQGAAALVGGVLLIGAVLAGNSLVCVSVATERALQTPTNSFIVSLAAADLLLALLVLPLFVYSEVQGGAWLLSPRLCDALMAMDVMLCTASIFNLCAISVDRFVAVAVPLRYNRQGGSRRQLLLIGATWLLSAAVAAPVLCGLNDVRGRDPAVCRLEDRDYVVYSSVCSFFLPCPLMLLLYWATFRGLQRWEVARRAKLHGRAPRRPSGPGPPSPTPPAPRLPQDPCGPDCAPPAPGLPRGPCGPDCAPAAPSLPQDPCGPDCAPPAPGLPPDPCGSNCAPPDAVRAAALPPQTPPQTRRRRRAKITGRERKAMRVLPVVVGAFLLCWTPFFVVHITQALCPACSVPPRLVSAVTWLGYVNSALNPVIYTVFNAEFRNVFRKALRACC

[6] = target: Sodium- and chloride-dependent GABA transporter 1 (Homo sapiens) (UniProt P30531); assay: GABA transporter CEREP ligand profiling; conditions: Compound concentration 10.0 uM
Phosphodiesterase 3 = Phosphodiesterase 3 (Homo sapiens, UniProt Q14432+Q13370); assay: PDE3 (h) CEREP ligand profiling; format: protein assay
[7] = target: Peroxisome proliferator-activated receptor gamma (Homo sapiens) (UniProt P37231); assay: PPAR gamma (h) CEREP ligand profiling; conditions: Compound concentration 10.0 uM
[8] = target: Calcium-activated potassium channel (Homo sapiens) (UniProt Q92952+Q9UGI6+Q12791+O15554+Q9H2S1+A8MYU2); assay: SK+Ca channel CEREP ligand profiling; format: protein assay; conditions: Compound concentration 10.0 uM
[9] = target: Ankyrin repeat and protein kinase domain-containing protein 1 (Homo sapiens) (UniProt Q8NFD2); conditions: Compound concentration 1000.0 nM
[10] = target: Calcium/calmodulin-dependent protein kinase kinase 1 (Homo sapiens) (UniProt Q8N5S9); conditions: Compound concentration 1000.0 nM
[11] = target: Serine/threonine-protein kinase MRCK gamma (Homo sapiens) (UniProt Q6DT37); conditions: Compound concentration 1000.0 nM
[12] = tested on: Epidermal growth factor receptor (Homo sapiens), P00533 [UNDEFINED MUTATION]; conditions: Compound concentration 1000.0 nM
[13] = target: Ephrin type-B receptor 4 (Homo sapiens) (UniProt P54760); conditions: Compound concentration 1000.0 nM
[14] = target: Tyrosine-protein kinase Fer (Homo sapiens) (UniProt P16591); conditions: Compound concentration 1000.0 nM
[15] = tested on: Receptor-type tyrosine-protein kinase FLT3 (Homo sapiens), P36888 [D835H]; conditions: Compound concentration 1000.0 nM
[16] = tested on: Receptor-type tyrosine-protein kinase FLT3 (Homo sapiens), P36888 [N841I]; conditions: Compound concentration 1000.0 nM
[17] = target: Rhodopsin kinase GRK7 (Homo sapiens) (UniProt Q8WTQ7); conditions: Compound concentration 1000.0 nM
[18] = target: Tyrosine-protein kinase Lck (Homo sapiens) (UniProt P06239); conditions: Compound concentration 1000.0 nM
[19] = target: Mitogen-activated protein kinase kinase kinase 15 (Homo sapiens) (UniProt Q6ZN16); conditions: Compound concentration 1000.0 nM
[20] = target: MAP kinase-interacting serine/threonine-protein kinase 2 (Homo sapiens) (UniProt Q9HBH9); conditions: Compound concentration 1000.0 nM
[21] = target: Serine/threonine-protein kinase Nek11 (Homo sapiens) (UniProt Q8NG66); conditions: Compound concentration 1000.0 nM
[22] = target: Serine/threonine-protein kinase PAK 3 (Homo sapiens) (UniProt O75914); conditions: Compound concentration 1000.0 nM
[23] = target: Cyclin-dependent kinase 18 (Homo sapiens) (UniProt Q07002); conditions: Compound concentration 1000.0 nM
[24] = target: Serine/threonine-protein kinase pim-3 (Homo sapiens) (UniProt Q86V86); conditions: Compound concentration 1000.0 nM
[25] = target: Serine/threonine-protein kinase D1 (Homo sapiens) (UniProt Q15139); conditions: Compound concentration 1000.0 nM
[26] = target: Serine/threonine-protein kinase D2 (Homo sapiens) (UniProt Q9BZL6); conditions: Compound concentration 1000.0 nM
[27] = target: cAMP-dependent protein kinase catalytic subunit PRKX (Homo sapiens) (UniProt P51817); conditions: Compound concentration 1000.0 nM
[28] = tested on: Proto-oncogene tyrosine-protein kinase receptor Ret (Homo sapiens), P07949 [V804L]; conditions: Compound concentration 1000.0 nM
[29] = target: NUAK family SNF1-like kinase 2 (Homo sapiens) (UniProt Q9H093); conditions: Compound concentration 1000.0 nM
[30] = target: High affinity nerve growth factor receptor (Homo sapiens) (UniProt P04629); conditions: Compound concentration 1000.0 nM
[31] = target: Serine/threonine-protein kinase 32A (Homo sapiens) (UniProt Q8WU08); conditions: Compound concentration 1000.0 nM
D(1A) dopamine receptor = D(1A) dopamine receptor (Homo sapiens, UniProt P21728); assay: GPCRScan assay: inhibition of D1; design: radioligand conc. used [nm] 0.6 – 1.3, parental cells HEKT

Chain of Tyrosine-protein kinase Fer (Homo sapiens) (P16591 whole entry, looked up): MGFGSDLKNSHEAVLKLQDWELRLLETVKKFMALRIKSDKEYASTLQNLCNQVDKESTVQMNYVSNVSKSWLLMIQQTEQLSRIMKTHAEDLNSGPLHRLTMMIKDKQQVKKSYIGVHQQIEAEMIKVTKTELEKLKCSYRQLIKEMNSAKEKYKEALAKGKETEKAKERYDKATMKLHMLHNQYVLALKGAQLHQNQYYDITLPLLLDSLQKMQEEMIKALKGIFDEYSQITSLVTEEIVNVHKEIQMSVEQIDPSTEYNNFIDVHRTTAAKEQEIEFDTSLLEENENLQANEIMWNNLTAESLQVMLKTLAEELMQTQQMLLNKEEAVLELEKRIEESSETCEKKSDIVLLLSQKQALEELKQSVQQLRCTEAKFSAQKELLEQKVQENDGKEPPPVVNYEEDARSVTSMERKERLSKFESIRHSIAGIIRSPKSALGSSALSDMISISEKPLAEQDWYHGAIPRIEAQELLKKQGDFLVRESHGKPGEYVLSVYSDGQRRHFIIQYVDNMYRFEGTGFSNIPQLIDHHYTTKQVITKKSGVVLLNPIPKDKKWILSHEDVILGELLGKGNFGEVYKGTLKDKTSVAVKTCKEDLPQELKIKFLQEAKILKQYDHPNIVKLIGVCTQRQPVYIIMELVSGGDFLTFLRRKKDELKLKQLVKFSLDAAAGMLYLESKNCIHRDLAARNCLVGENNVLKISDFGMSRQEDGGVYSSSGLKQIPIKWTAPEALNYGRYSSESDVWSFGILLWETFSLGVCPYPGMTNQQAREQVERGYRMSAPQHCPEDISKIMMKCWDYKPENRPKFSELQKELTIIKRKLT
Chain of Serine/threonine-protein kinase Nek11 (Homo sapiens) (Q8NG66 whole entry): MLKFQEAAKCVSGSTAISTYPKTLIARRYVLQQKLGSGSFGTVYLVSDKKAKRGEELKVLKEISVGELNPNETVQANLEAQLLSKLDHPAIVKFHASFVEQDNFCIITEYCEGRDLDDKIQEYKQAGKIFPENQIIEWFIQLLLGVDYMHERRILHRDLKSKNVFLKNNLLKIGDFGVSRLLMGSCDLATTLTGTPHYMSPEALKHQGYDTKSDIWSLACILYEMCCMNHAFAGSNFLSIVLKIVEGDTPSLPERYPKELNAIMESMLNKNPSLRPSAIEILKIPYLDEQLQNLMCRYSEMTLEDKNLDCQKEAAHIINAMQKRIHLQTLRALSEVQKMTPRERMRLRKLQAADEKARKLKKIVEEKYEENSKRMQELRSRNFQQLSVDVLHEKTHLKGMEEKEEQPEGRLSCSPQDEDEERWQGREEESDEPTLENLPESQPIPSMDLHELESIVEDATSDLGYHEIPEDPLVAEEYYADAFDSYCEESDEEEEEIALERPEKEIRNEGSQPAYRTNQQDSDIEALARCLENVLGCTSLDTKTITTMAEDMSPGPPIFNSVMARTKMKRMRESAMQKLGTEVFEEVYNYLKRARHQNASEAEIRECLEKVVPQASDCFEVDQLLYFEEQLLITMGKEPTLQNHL
Chain of Mitogen-activated protein kinase kinase kinase 15 (Homo sapiens) (Q6ZN16 whole entry): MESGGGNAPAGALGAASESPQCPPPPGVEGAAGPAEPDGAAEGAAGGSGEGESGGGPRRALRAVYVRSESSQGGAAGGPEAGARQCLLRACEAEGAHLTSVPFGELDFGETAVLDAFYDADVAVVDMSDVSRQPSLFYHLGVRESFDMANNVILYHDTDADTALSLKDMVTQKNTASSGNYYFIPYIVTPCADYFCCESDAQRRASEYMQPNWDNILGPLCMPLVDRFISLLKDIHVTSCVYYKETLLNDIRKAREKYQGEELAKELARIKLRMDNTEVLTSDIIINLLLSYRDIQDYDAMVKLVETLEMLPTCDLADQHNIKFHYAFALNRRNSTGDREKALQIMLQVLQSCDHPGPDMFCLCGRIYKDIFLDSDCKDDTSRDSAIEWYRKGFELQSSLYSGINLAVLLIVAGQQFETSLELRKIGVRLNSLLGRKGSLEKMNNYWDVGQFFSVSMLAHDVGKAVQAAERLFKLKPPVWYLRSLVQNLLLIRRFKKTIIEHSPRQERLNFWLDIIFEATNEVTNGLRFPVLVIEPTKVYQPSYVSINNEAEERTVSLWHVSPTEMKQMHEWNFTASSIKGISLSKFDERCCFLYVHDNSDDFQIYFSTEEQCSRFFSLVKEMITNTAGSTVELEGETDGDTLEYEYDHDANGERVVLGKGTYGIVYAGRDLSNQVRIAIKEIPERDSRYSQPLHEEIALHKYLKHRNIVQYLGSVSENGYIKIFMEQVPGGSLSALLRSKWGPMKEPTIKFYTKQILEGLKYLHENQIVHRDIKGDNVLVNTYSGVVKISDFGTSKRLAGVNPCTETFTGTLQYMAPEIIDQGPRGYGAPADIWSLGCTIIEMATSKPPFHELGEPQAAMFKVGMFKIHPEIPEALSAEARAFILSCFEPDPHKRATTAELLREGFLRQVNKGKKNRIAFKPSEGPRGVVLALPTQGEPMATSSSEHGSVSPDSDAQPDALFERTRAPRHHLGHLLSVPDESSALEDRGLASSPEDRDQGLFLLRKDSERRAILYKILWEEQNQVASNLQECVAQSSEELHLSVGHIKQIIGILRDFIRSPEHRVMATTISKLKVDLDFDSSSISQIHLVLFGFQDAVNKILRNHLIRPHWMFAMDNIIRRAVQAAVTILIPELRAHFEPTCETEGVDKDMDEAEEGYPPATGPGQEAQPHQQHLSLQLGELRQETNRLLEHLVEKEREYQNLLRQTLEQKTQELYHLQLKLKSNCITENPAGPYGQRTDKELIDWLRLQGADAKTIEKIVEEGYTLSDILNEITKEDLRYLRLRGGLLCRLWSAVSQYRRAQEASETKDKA
Chain of Ephrin type-B receptor 4 (Homo sapiens) (P54760 whole entry): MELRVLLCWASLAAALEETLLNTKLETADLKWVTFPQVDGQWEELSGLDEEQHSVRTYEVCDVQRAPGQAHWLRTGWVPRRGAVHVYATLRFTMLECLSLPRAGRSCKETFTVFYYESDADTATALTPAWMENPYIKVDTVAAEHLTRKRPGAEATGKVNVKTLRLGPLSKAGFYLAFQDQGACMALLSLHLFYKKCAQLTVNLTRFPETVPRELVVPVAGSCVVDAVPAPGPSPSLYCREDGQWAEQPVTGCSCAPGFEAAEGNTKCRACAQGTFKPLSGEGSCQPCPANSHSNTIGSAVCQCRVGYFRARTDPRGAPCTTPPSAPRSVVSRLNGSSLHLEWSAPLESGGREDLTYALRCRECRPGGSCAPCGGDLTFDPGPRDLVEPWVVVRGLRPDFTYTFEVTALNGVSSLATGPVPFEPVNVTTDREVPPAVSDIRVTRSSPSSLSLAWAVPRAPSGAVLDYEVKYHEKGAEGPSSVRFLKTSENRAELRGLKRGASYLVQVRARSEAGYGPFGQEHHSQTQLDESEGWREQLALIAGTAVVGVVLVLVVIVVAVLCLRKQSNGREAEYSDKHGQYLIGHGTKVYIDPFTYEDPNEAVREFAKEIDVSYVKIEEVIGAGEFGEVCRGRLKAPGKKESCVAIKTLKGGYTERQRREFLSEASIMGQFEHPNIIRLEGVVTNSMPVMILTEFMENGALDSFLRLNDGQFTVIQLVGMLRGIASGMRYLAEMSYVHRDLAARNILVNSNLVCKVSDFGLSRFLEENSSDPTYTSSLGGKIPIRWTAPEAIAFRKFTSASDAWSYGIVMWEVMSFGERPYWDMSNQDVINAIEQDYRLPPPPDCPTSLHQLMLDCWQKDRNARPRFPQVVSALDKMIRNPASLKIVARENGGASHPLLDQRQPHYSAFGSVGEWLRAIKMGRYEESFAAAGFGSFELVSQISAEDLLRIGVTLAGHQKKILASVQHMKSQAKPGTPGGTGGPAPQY
Chain of Serine/threonine-protein kinase D1 (Homo sapiens) (Q15139 whole entry): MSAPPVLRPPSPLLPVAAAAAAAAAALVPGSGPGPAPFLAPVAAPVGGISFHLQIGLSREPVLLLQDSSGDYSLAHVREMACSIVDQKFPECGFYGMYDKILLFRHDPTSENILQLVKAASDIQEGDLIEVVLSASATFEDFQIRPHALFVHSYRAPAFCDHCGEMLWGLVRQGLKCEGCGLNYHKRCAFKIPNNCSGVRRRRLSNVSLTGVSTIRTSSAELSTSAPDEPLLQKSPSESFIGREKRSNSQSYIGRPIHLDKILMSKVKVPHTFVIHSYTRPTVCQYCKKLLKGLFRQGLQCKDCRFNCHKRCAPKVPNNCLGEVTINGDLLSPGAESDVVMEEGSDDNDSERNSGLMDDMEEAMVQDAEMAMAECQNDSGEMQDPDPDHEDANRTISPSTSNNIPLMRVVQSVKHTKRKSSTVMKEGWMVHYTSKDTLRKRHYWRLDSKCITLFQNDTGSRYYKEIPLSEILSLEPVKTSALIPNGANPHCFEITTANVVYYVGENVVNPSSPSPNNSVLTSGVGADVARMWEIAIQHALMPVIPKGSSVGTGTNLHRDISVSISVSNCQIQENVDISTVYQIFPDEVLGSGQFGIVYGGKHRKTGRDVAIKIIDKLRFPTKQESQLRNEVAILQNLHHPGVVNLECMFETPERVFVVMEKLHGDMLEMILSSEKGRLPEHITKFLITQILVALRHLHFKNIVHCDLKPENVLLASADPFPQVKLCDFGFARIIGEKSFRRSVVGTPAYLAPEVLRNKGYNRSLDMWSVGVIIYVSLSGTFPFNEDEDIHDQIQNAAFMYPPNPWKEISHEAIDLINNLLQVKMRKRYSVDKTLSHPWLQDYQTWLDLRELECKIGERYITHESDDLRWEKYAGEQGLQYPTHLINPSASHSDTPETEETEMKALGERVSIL

COc1ccc2cc(OCC3(C(=O)O)CN(C(=O)c4ccc(F)cc4)C3)ccc2c1 [PF-04418948]
inhibition [1]: -7%
inhibition [2]: -10%
inhibition [3]: 1%
inhibition [4]: -8%
inhibition [5]: -8%
inhibition [6]: 14%
IC50 (Phosphodiesterase 3): 3.5 µM
inhibition (Phosphodiesterase 3; Compound concentration 10.0 uM): 78%
inhibition [7]: 14%
inhibition [8]: -1%
residual activity [9]: 86%
residual activity [10]: 91%
residual activity [11]: 91%
residual activity [12]: 87%
residual activity [13]: 95%
residual activity [14]: 74%
residual activity [15]: 71%
residual activity [16]: 76%
residual activity [17]: 93%
residual activity [18]: 80%
residual activity [19]: 94%
residual activity [20]: 96%
residual activity [21]: 93%
residual activity [22]: 94%
residual activity [23]: 98%
residual activity [24]: 98%
residual activity [25]: 96%
residual activity [26]: 93%
residual activity [27]: 90%
residual activity [28]: 78%
residual activity [29]: 92%
residual activity [30]: 71%
residual activity [31]: 97%

O=C(c1ccc(F)cc1)N1CC(COc2ccc(Br)cc2)(C(=O)O)C1 [PF-04475866]
Ki (D(1A) dopamine receptor): 10 µM
